Laboratory results from patent publication US10385103B2, “Cell-permeable (ICP)-SOCS3 recombinant protein and uses thereof” (CELLIVERY THERAPEUTICS, INC., priority 2014, dated 2019).
pIC50: −log10 of the molar value.

What was measured:
[1] = test system: HCCs (Hep3B, HepG2, Huh7 and SK-HEP-1); assay: Inhibition of cell cycle progression (PI staining, flow cytometry); assay type: cell-based, human; details: reference drugs
Method: To further determine the effect of iCP-SOCS3 on the tumorigenicity of hepatocellular carcinoma cells, we subsequently investigated whether iCP-SOCS3 regulates cell cycle progression in HCCs (Hep3B, HepG2, Huh7 and SK-HEP-1).
HCCs and normal cells were treated with 10 uM protein (Non-CP-SOCS3 (HS3B) and iCP-SOSC3 (HM165S3B)) for 8 hrs. After the treatment, cells were washed twice with cold PBS and re-suspended in 1 ml cold PBS, fixed in cold 70% ethanol, washed with cold PBS twice and re-suspended in PI master mix (PI 10 ug/ml (SIGMA, USA), 50 ug/ml RNase A (Invitrogen, USA) in staining buffer) at a final cell density of 2×10^5 cell/ml. The cell mixtures were incubated 30 min in the dark at 4° C. Flow cytometric analysis was immediately performed using a guava easyCyte™ 8 Instrument (Merck Millipore, Darmstadt, Germany).

[2] = read-out: IC50 (stated for reference drug); cited from earlier work
[3] = test system: HepG2 cells; assay: Induction of apoptosis, Annexin V/7-AAD staining; assay type: cell-based, human
Method: (§1) AGS cells (gastric carcinoma cell line) (American Type Culture Collection; ATCC) were seeded in a 12-well plate at a density of 1×10^5 cells/well, and then treated with 10 uM of aMTD/SD-fused SOCS3 for 14 hours. Cancer cell death was analyzed by Annexin V analysis. Annexin V/7-Aminoactinomycin D (7-AAD) staining was performed using flow cytometry according to the manufacturer's guidelines (BD Pharmingen, San Diego, Calif., USA). Briefly, cells were washed three times with ice-cold PBS. The cells were then resuspended in 100 μl of binding buffer and incubated with 1 μl of 7-AAD and 1 μl of annexin V-PE for 30 min in the dark at 37° C. Flow cytometric analysis was immediately performed using a guava easyCyte™ 8 Instrument (Merck Millipore, Darmstadt, Germany).
Annexin V/7-Aminoactinomycin D (7-AAD) staining was performed using flow cytometry according to the manufacturer's guidelines (BD Pharmingen, San Diego, Calif., USA). Briefly, 1×10^6 cells were washed three times with ice-cold PBS. The cells were then resuspended in 100 μl of binding buffer and incubated with 1 μl of 7-AAD and 1 μl of […] for 30 min in the dark at 4° C. Flow cytometric analysis was immediately performed using a guava easyCyte™ 8 Instrument (Merck Millipore, Darmstadt, Germany). In this regard, Cisplatin® (IC50: 30 μM) was used as a reference drug.
(§2) The effect of inducing apoptosis of Chang liver cells was measured in the same manner as in Example 11-2, except that as target cell lines, normal Chang liver cells and hepatocellular carcinoma cell lines, Hep3B, HepG2, Huh7, and SK-HEP-1 were used, and as a reference drug, 5-FU® (IC50: 40 μM) was used.

[4] = test system: Huh7 cells; assay: Induction of apoptosis, Annexin V/7-AAD staining; assay type: cell-based, human; details: example 20-2
Method: as §1, §2

[5] = test system: SK-Hep-1 cells; assay: Induction of apoptosis, Annexin V/7-AAD staining; assay type: cell-based, human; details: example 20-2
Method: as §1, §2

[6] = test system: Hep3B cells; assay: Induction of apoptosis, Annexin V/7-AAD staining; assay type: cell-based, human; details: example 20-2
Method: as §1, §2

[7] = test system: Huh7 cells; assay: Induction of apoptosis, TUNEL assay; assay type: cell-based, human; details: 10 μM, 24 hr, 2% fetal bovine serum
Method: Apoptotic cells were analyzed using terminal dUTP nick-end labeling (TUNEL) assay with In Situ Cell Death Detection kit TMR red (Roche, 4056 Basel, Switzerland). Cells were treated for 24 hr with 10 μM HS3B or HM165S3B proteins with 2% fetal bovine serum and apoptotic cells were visualized by TUNEL staining. Treated cells were washed with cold PBS two times, fixed in 4% paraformaldehyde (PFA, Junsei, Tokyo, Japan) for 1 hr at room temperature, and incubated in 0.1% Triton X-100 for 2 min on the ice. Cells were washed with cold PBS twice, and treated TUNEL reaction mixture for 1 hr at 37° C. in dark, washed cold PBS three times and observed by fluorescence microscopy (Nikon, Tokyo, Japan). Cisplatin® (IC50: 30 μM) was used for reference drug.

[8] = test system: HepG2 tumor; assay: Anti-tumor activity in cell-derived xenograft model; details: iCP-SOCS3 IV 50 mg/kg every day; Cisplatin IP 4 mg/kg twice a week; 3 weeks
Method: Female Balb/c^nu/nu mice (5-week-old, Doo-Yeol Biotech Co. Ltd. Korea) were subcutaneously implanted with Hep3B2.1-7 tumor block (1 mm^3) into the left back side of the mouse. […] Tumor size was monitored by measuring the longest (length) and shortest dimensions (width) once a day with a dial caliper, and tumor volume was calculated as width2×length×0.5.
Then, tumor volumes were examined. […] Then, tumor volumes were examined.

[9] = test system: RAW 264.7 cells; assay: Quantitative cell-permeability of FITC-labeled aMTD- or rPeptide-fused CRA recombinant proteins (flow cytometry); assay type: cell-based; details: RAW 264.7 cells, 10 μM FITC-labeled recombinant protein, 1 hour
Summary of the method: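 RAW 264.7 cells were exposed to 10 μM FITC-labeled recombinant proteins, consisting of a non-functional cargo fused to aMTD or rPeptide sequences, for 1 hour at 37° C. Cells were washed three times in cold PBS and treated with 0.25% tripsin/EDTA for 20 minutes at 37° C. to strip surface-bound protein, then uptake was measured by flow cytometry.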

[10] = test system: NIH3T3 cells; assay: Intracellular delivery and localization of aMTD-/rPeptide-fused CRA recombinant proteins (confocal laser scanning microscopy); assay type: cell-based, mouse; details: 10 μM FITC-labeled protein, 1 hour, 37
Method: NIH3T3 cells were exposed to 10 μM of FITC-labeled protein for 1 hour at 37, and nuclei were counterstained with DAPI. Then, cells were examined by confocal laser scanning microscopy (FIG. 7). […] The intracellular localization of the fluorescent signal was determined by confocal laser scanning microscopy (LSM700, Zeiss, Germany; FIGS. 7 and 8).

For `O=c1[nH]cc(F)c(=O)[nH]1` [5-FU, reference compound], the “amount of subG1” value [1] is given as “hardly increased the amount of subG1”, the pIC50 [2] is given as 4.40 and the “induction of apoptosis (Annexin V), HepG2” value ([3]; example 20-2) is given as “hardly induced apoptosis”. For the same molecule, the “induction of apoptosis (Annexin V), Huh7” value [4] was “hardly induced apoptosis”, the “induction of apoptosis (Annexin V), SK-HEP-1” value [5] was “hardly induced apoptosis” and the “induction of apoptosis (Annexin V), Hep3B” value [6] was “hardly induced apoptosis”.
With `N.N.[Cl][Pt][Cl]` [Cisplatin, reference compound] the “induction of apoptosis (TUNEL), Huh7” value [7] was “hardly induced apoptosis”, the “body weight / adverse effects” value [8] was “remarkable weight loss” and the “amount of subG1” value [1] was “hardly increased the amount of subG1”. For the same molecule, the pIC50 [2] was 4.52 and the “induction of apoptosis (Annexin V), HepG2, dose dependence” value ([3]; example 20-1) was “hardly induced apoptosis”.
For YYNQSTCGGQCY [rP38, reference compound], the “Relative Ratio to aMTD AVE” value [9] was 0.3±0.04 fold and the “intracellular delivery and localization (internalized fluorescence signal)” value [10] was “did not show internalized fluorescence signal”.
